What is called IC50 is the concentration at which inhibition is half-maximal. Broadly, the EC50 is the concentration at which the effect is half-maximal. For orientation: AC50 means the concentration giving half of the maximal activity seen.

The target in one assay is T1, Caspase-3 (Homo sapiens, UniProt P42574).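 Further: Dose-response selectivity test against caspase-3 for candidate inhibitors of sentrin-specific proteases (SENPs).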
T1 sequence (P42574 whole entry): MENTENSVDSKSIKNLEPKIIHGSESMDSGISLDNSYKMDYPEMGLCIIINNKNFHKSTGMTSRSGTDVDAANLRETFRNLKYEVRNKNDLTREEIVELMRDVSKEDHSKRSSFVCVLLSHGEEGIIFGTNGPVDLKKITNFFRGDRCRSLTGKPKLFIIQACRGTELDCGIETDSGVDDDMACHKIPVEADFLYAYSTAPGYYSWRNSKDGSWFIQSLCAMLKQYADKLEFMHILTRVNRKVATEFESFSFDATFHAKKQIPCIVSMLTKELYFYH
The format is functional.

Assay [1] concerns the target T2, Sentrin-specific protease 7 (Homo sapiens, UniProt Q9BQF6).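 Further: Luminescence-based dose-response confirmation of ultra-high-throughput screening hits, measuring inhibition of SENP7.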
T2 sequence (Q9BQF6 whole entry): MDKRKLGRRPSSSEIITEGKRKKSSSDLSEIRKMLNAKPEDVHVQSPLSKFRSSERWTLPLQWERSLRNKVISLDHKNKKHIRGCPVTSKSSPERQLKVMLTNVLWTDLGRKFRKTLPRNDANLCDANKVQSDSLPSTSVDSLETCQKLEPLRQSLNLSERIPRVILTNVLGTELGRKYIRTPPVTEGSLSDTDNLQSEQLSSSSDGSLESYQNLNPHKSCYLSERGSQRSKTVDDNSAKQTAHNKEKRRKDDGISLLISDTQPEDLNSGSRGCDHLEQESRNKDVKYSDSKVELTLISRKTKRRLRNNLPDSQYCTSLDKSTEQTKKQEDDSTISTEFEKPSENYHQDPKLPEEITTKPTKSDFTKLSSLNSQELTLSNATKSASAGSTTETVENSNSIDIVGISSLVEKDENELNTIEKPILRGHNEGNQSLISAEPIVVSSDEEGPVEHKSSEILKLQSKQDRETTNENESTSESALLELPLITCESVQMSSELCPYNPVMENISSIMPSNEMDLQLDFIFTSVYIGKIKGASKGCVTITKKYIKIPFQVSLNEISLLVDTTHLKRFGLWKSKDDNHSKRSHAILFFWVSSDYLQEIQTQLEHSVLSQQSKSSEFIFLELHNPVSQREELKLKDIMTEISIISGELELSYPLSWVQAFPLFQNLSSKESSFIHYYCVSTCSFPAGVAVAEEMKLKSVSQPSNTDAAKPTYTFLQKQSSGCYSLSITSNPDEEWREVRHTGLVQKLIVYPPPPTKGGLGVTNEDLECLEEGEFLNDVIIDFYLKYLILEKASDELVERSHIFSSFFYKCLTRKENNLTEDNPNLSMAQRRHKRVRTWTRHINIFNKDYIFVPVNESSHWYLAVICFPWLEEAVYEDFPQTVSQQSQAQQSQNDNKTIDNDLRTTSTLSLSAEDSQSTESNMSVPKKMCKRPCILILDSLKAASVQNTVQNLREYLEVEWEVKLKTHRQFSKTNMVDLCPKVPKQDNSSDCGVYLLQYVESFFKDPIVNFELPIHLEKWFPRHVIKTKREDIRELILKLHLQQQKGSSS
The format is functional.

Assay [2] concerns the target T3, Sentrin-specific protease 8 (Homo sapiens, UniProt Q96LD8).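 Further: luminescence read-out of SENP8 inhibition, dose-response confirmation following an ultra-high-throughput screen.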
T3 sequence (Q96LD8 whole entry): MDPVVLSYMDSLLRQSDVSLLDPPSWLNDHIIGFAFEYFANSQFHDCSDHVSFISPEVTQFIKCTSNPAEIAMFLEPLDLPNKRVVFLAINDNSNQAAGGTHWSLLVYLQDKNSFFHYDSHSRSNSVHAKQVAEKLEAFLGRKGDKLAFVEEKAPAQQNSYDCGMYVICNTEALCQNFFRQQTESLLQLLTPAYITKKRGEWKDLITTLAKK
In kind it is functional.

For assay [3], the target named is T4, Sentrin-specific protease 6 (Homo sapiens, UniProt Q9GZR1).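 Further: Luminescence-based dose-response confirmatory assay of SENP6 inhibition, following up an ultra-high-throughput screen.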
T4 sequence (Q9GZR1 whole entry): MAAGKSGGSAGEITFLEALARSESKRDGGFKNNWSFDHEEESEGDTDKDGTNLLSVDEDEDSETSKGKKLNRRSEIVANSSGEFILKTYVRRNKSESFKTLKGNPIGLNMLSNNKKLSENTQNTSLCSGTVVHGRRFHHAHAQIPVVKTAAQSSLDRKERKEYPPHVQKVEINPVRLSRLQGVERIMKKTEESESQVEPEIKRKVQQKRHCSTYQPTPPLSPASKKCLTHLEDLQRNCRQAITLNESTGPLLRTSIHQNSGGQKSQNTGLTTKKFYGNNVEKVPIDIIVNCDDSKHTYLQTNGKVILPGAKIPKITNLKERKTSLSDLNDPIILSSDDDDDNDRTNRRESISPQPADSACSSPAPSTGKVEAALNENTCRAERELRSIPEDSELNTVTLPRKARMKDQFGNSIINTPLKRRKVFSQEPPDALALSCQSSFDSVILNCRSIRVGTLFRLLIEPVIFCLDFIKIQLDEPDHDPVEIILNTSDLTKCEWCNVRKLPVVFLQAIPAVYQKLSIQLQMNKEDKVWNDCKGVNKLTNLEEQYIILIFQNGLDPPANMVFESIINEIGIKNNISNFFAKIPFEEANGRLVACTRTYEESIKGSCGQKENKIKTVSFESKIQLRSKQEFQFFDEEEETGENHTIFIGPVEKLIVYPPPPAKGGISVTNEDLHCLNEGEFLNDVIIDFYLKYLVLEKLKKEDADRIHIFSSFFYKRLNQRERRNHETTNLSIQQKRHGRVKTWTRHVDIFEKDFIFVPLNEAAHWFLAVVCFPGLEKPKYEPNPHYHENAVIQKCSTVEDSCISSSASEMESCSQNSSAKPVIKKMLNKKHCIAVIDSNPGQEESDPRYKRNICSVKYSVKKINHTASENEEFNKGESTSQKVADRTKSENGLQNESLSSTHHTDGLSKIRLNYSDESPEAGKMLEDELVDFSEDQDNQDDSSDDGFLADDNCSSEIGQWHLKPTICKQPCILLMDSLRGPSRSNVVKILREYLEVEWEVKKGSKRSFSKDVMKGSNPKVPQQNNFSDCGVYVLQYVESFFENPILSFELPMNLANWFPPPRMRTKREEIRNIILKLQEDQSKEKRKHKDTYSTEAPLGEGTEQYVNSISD
The format is functional.

The next assay concerns the target Nonstructural protein 1 (Influenza A virus, UniProt Q194T2). The format is functional, Influenza A virus (A/California/07/2009(H1N1)).
A short description of assay [4]: Trypanosoma cruzi growth suppression in host cells – NIH3T3 host cells, beta-gal luminescence, confirmation (AID 2044).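 Further: intracellular parasites grown in NIH/3T3 mouse fibroblasts as host cells; luminescent beta-galactosidase reporter signal from transgenic T. cruzi replicating inside host cells; inhibitors lower the luminescence signal.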 In kind it is functional, cell-based.
A short description of assay [5]: NIH3T3 cell viability loss – ATP luminescence, mouse fibroblasts, counter-screen, dose response (AID 2010).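 Further: cells exposed to compound for about 90 hours before reading.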 In kind it is functional, cell-based. (A counterscreen serves to expose hits that act by an unwanted route or on another target.)
For the next assay, the target named is T5, Estrogen receptor (Homo sapiens, UniProt P03372).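 Further: potency for inhibiting coactivator peptide recruitment to the receptor.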
T5 sequence (P03372 whole entry): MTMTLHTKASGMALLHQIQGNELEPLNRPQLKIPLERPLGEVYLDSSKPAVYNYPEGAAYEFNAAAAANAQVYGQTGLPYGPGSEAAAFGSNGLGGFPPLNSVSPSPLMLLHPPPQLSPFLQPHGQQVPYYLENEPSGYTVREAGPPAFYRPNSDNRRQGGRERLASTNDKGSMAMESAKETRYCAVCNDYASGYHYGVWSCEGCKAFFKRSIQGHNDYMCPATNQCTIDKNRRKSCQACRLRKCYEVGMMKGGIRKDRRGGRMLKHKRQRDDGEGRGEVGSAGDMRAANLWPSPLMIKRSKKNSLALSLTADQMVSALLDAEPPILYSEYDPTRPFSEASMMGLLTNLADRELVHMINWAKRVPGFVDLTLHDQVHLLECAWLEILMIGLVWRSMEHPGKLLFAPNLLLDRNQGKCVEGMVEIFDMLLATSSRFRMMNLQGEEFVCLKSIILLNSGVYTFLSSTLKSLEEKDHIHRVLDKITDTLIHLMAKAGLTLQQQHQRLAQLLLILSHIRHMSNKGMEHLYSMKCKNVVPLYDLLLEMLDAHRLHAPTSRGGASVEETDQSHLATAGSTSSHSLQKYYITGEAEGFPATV

Assay [6] in a line: Luminescence Cell-Based Dose Response HTS to Identify Activators of Luciferase Translation or Activity in H4 […] Cells. [Related pubchem assays: 1829 (Project Summary), 1814 (Primary HTS)]. The format is functional.
The test system of the next assay is H4. Nature of the assay: Luminescence Cell-Based Dose Response HTS to Identify Activators of 5'UTR Stem-Loop Driven Prion Protein mRNA Translation in H4 Neuroglioblastoma Cells. [Related pubchem assays: 1829 (Project Summary), 1814 (Primary HTS)]. The format is functional. To be noted: Homo sapiens.
Assay [7] can be described thus: Luminescence Cell-Based Dose Confirmation HTS to Identify Activators of 5'UTR Stem-Loop Driven Alpha-Synuclein mRNA Translation in H4 Neuroglioblastoma Cells. [Related pubchem assays: 1829 (Project Summary), 1814 (Primary HTS)]. In kind it is functional.
In assay [8] the test system is HEK293. Nature of the assay: inhibition of NOD1-driven NF-kB reporter – cell-based, luminescence, uHTS, primary screen (AID 1578). The format is functional. To be noted: Homo sapiens.
Assay [9] is described as follows: Luminescence Cell-Based Dose Retest to Confirm Inhibitors of Cancer Stem Cells. [Related pubchem assays (depositor defined):AID2717, AID2721]. In kind it is functional. The following applies: Homo sapiens.
The test system of assay [10] is HEK293. As to the kind of experiment: NOD2 signaling inhibitors in MDP-stimulated cells, cell-based, uHTS, luminescence (AID 2001). The following applies: Homo sapiens. The format is functional.
The test system of assay [11] is HEK293. Nature of the assay: cells. The format is functional, cell-based. The following applies: Homo sapiens.
In assay [12] the test system is HEK293. Nature of the assay: cells. The format is functional, cell-based. To be noted: Homo sapiens. The source holds these as a separate data set.

Active and inactive are the calls of the source. A value given as a limit tells only on which side of the number the result lay.
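Wherever AC50 is given: cells exposed to compound for roughly 70 hours or longer before luminescence read.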

Chain of Nonstructural protein 1 (Q194T2 whole entry): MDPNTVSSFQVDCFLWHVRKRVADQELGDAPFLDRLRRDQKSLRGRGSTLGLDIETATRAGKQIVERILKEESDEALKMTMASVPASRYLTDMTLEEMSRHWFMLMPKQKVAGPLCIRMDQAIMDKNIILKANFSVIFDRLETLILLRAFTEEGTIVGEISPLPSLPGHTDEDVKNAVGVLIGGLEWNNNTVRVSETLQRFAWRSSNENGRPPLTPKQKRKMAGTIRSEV

On to `CCc1ccc(-c2csc(NC(=O)C3=COCCO3)n2)cc1`, for which the IC50 at Caspase-3 is 38.6 µM (active); in assay [1], 6.81 µM (active); in assay [2], 48.5 µM (active); in assay [3] it was 27 µM (active).
On to `O=C(Nc1ccccc1Cl)Nc1cccc2cccnc12`, for which the IC50 at Caspase-3 was 29.4 µM (active); in assay [1] it was 7.41 µM (active); in assay [2], 6.08 µM (active); in assay [3], > 100 µM (inactive).
In the case of `CC1CCN(c2c([N+](=O)[O-])nn(-c3ccc4c(c3)OCCO4)[n+]2[O-])CC1`, the IC50 at Nonstructural protein 1 was 58.9 µM (active). In addition, the EC50 in [4] was 0.431 µM (active); in assay [5] it was > 60 µM (not active).
With `COc1ccccc1NC(=O)CSc1n[nH]c(-c2ccccn2)n1`, at Nonstructural protein 1, the IC50 is 6.84 µM (active).
Regarding `O=[N+]([O-])c1nn(-c2ccc3c(c2)OCCO3)[n+]([O-])c1NCc1ccccc1Cl`, the IC50 on Caspase-3 is > 100 µM (inactive); in [1], 3.36 µM (active); in [2], > 100 µM (inactive); in assay [3], > 100 µM (inactive).
Take `O=C(Cc1cccs1)Nc1nnc(COc2ccccc2)s1`: the IC50 against Estrogen receptor is on record as 37.3 µM (not active).
As to `Clc1ccc(OCc2nc(-c3ccncc3)no2)c(Cl)c1`, the IC50 on Caspase-3 was 38.8 µM (active); in assay [1], 9.12 µM (active); in assay [2] it was 36.6 µM (active); in assay [3], 28.8 µM (active).
On to `S=C(NNc1ccc2ccccc2c1)NC1CCCCC1`, for which the EC50 is 30.4 µM (active) in assay [6], 9.85 µM (active) in the assay with H4 and 42.1 µM (active) in assay [7]. Also, the IC50 on Nonstructural protein 1 was > 100 µM (active).
Turning to `CC(C)OC(=O)c1cc2c(ccn2C)n1CC(=O)N(Cc1ccccc1)c1ccc(F)cc1`, at Nonstructural protein 1, the IC50 was > 100 µM (active).
`Cc1cccc(C(=O)n2c(=S)nc3cc(C)ccn32)c1`: the 50% inhibitory concentration (IC50) on Caspase-3 was 87.3 µM (active); in [1], 11 µM (active); in assay [2], > 100 µM (inactive); in assay [3], 86.4 µM (active).
As to `O=C(CSc1nc2cc(Cl)ccc2s1)NC(=O)NCc1ccco1`, the IC50 against Estrogen receptor is > 50 µM (not active).
As for `COc1ccc(-c2nc3ccccc3c(=O)[nH]2)cc1`, the IC50 was 6.83 µM (active) at Caspase-3, 6.89 µM (active) in assay [1], > 100 µM (inactive) in [2] and 17.3 µM (active) in assay [3].
For the compound `CC1(C)C=C2[C@H]3CC[C@@H]4[C@@]5(C)CCC(=O)C(C)(C)[C@@H]5CC[C@@]4(C)[C@]3(C)CC[C@@]2(C(=O)O)CC1` [MORONIC ACID], the EC50 with HEK293 [8] is 2.27 µM (active). In addition, the AC50 in assay [9] was 3.35 µM (active). Moreover, the IC50 is 8.08 µM (active) in the assay with HEK293 [10], 15.7 µM (active) with HEK293 [11] and 10.9 µM (active) with HEK293 [12].

The values above are taken from ChEMBL document CHEMBL1201862, “PubChem BioAssay data set” (2004).
